The results in this text go back to patent publication US11999727B2 (Tango Therapeutics, Inc., priority 2020, dated 2024).

The target in test [1] is T1, PRMT5 (Homo sapiens, UniProt O14744).
T1 construct: purchased Viva (custom protein)
Kind of test: PRMT5 biochemical IC50 assay with SAM as cofactor. Particulars: PRMT5, SAM as cofactor; read-out: SAM IC50.

Test [2] has as its target T1, PRMT5. In words: PRMT5 biochemical IC50 assay with no cofactor. To be noted: PRMT5, no cofactor; read-out: No Cofactor/rel IC50. From the text:
Table 1 indicates IC50 values (μM) against PRMT5 for exemplary compounds in the presence of SAM as cofactor, with no cofactor, and with MTA as cofactor, respectively (columns 4-6). […] Ki values can be calculated from the IC50 values as described in the Examples section. As detailed in the Examples section, for the assay performed in the presence of SAM, IC50=Ki×1.5 (Ki=IC50/1.5).

Test [3] has as its target T1, PRMT5. Kind of test: PRMT5 biochemical IC50 assay with MTA as cofactor. To be noted: PRMT5, MTA as cofactor; read-out: MTA IC50.
Test [4] relates to HAP1 MTAP-intact cell line. In words: SDMA in-cell western assay, HAP1 MTAP-intact. Format: cell-based. Particulars: Homo sapiens, HAP1, SDMA in-cell western, HAP1 MTAP-intact; read-out: MTAP HAP1 intact IC50. A digest of the protocol:
(§1)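 Compounds were tested in HAP1 cells differing only in MTAP status (endogenous expression versus null). Cellular SDMA levels were then measured by in-cell western, giving an IC50 in each background.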

Test [5] concerns HAP1 MTAP-deleted cell line. In words: SDMA in-cell western assay, HAP1 MTAP-deleted. Format: cell-based. Particulars: for IC50: Homo sapiens, HAP1, SDMA in-cell western, HAP1 MTAP-deleted, read-out: HAP1 MTAP deleted IC50; for MTAP intact/deleted ratio: IC50 ratio HAP1 MTAP-intact vs HAP1 MTAP-deleted, SDMA in-cell western. A digest of the protocol: as §1
Test [6] concerns HAP1 MTAP-deleted cell line. Kind of test: Viability assay, MTAP-deleted cell line. Format: cell-based. Particulars: Homo sapiens, HAP1, viability assay, MTAP-deleted cell line; read-out: HAP1 MTAP deleted viability. From the text:
Table 1 additionally indicates IC50 values in a viability assay for the MTAP-deleted cell line (column 10), indicating the effect of treatment with compound on cell survival.

T1 sequence (O14744 whole entry): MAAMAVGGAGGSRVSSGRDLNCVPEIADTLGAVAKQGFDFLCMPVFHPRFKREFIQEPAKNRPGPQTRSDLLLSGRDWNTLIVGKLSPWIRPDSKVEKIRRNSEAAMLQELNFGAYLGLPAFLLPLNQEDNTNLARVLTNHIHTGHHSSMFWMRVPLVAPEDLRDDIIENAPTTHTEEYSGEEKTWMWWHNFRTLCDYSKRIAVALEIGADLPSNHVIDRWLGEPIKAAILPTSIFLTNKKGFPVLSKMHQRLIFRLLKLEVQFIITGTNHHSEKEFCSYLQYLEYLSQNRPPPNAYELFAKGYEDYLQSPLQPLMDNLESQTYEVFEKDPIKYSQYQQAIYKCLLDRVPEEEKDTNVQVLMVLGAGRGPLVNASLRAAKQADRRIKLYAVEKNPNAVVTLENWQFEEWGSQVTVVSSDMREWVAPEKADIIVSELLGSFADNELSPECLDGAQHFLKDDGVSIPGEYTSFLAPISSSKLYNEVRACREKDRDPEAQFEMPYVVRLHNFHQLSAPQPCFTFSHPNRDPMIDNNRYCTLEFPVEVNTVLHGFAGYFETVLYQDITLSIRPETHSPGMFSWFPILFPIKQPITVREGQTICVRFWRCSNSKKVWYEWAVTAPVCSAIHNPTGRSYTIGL
T1 sequence (Q9BQA1 whole entry partner): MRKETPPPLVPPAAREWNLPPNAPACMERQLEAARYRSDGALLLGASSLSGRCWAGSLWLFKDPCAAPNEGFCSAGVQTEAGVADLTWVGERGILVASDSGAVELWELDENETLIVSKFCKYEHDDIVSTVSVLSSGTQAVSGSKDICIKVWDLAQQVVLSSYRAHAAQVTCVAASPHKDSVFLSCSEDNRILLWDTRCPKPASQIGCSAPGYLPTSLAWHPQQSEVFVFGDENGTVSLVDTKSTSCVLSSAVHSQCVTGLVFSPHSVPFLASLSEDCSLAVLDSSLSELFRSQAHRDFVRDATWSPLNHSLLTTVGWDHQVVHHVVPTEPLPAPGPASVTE

Consider `CCc1cc(NC(=O)C(=O)N2C[C@@H](C)CC[C@@H]2c2cccc(OCCN(C)C)c2)cnc1N` [Compound 1175, N-(6-amino-5-ethylpyridin-3-yl)-2-((2R,5S)-2-(3-(2-(dimethylamino)ethoxy)phenyl)-5-methylpiperidin-1-yl)-2-oxoacetamide], for which the IC50 is below 50 nM in test [1]; below 50 nM in test [2]; below 50 nM in test [3]; 100 to 1000 nM in test [4]; below 100 nM in test [5]; below 1000 nM in test [6]. In addition, the MTAP intact/deleted ratio result in test [5] was “A (an IC50 ratio greater than or equal to 10 fold)”.

`CCc1cc(NC(=O)C(=O)N2C[C@@H](C)CC[C@@H]2c2cccc(OC[C@@H]3CCN(C)C3)c2)cnc1N` [Compound 1178, N-(6-amino-5-ethylpyridin-3-yl)-2-((2R,5S)-5-methyl-2-(3-(((R)-1-methylpyrrolidin-3-yl)methoxy)phenyl)piperidin-1-yl)-2-oxoacetamide]: the IC50 was below 50 nM in test [1]; below 50 nM in test [2]; below 50 nM in test [3]; below 100 nM in test [4]; below 100 nM in test [5]; below 1000 nM in test [6]. Moreover, in test [5], the MTAP intact/deleted ratio entry is recorded as “A (an IC50 ratio greater than or equal to 10 fold)”.

Turning to `CCc1cc(NC(=O)C(=O)N2C[C@@H](C)CC[C@@H]2c2cccc(OC[C@H]3CCN(C)C3)c2)cnc1N` [Compound 1179, N-(6-amino-5-ethylpyridin-3-yl)-2-((2R,5S)-5-methyl-2-(3-(((S)-1-methylpyrrolidin-3-yl)methoxy)phenyl)piperidin-1-yl)-2-oxoacetamide], the IC50 is below 50 nM in test [1]; below 50 nM in test [2]; below 50 nM in test [3]; below 100 nM in test [4]; below 100 nM in test [5]; below 1000 nM in test [6]. In test [5], the MTAP intact/deleted ratio result is on record as “A (an IC50 ratio greater than or equal to 10 fold)”.

With `Cc1cc(NC(=O)C(=O)N2C[C@@H](C)CC[C@@H]2c2ccc3sc(C4CCN(C5CC5)CC4)nc3c2)cnc1N` [Compound 1181, N-(6-amino-5-methylpyridin-3-yl)-2-((2R,5S)-2-(2-(1-cyclopropylpiperidin-4-yl)benzo[d]thiazol-5-yl)-5-methylpiperidin-1-yl)-2-oxoacetamide], the IC50 in test [1] was below 50 nM; in test [2] it was below 50 nM; in test [3], below 50 nM; in test [4] it was below 100 nM; in test [5] it was below 100 nM; in test [6], below 1000 nM. Also, the MTAP intact/deleted ratio entry in test [5] is reported as “B (an IC50 ratio greater than or equal to 3 fold but lower than 10 fold)”.

Regarding `Cc1cc(NC(=O)C(=O)N2C[C@@H](C)CC[C@@H]2c2ccc3sc(-c4nccn4C)nc3c2)cnc1N` [Compound 1186, N-(6-amino-5-methylpyridin-3-yl)-2-((2R,5S)-5-methyl-2-(2-(1-methyl-1H-imidazol-2-yl)benzo[d]thiazol-5-yl)piperidin-1-yl)-2-oxoacetamide], the IC50 in test [1] was 50 to 500 nM; in test [2], below 50 nM; in test [3], below 50 nM; in test [4], below 100 nM; in test [5], below 100 nM; in test [6] it was below 1000 nM. Moreover, the MTAP intact/deleted ratio result in test [5] is reported as “A (an IC50 ratio greater than or equal to 10 fold)”.

For the compound `CCc1cc(NC(=O)C(=O)N2C[C@@H](C)CC[C@@H]2c2ccc3sc(C4CC5CCC(C4)N5C)nc3c2)cnc1N` (stereo partly drawn) [Compound 1187, N-(6-amino-5-ethyl-3-pyridyl)-2-[(2R,5S)-5-methyl-2-[2-(8-methyl-8-azabicyclo[3.2.1]octan-3-yl)-1,3-benzothiazol-5-yl]-1-piperidyl]-2-oxo-acetamide], the IC50 is below 50 nM in test [1]; below 50 nM in test [2]; below 50 nM in test [3]; below 100 nM in test [4]; below 100 nM in test [5]; below 1000 nM in test [6]. Besides, the MTAP intact/deleted ratio result in test [5] is on record as “A (an IC50 ratio greater than or equal to 10 fold)”.
